Reference: publication PMC9354042, “Discovery of BRAF/HDAC Dual Inhibitors Suppressing Proliferation of Human Colorectal Cancer Cells” (Frontiers in Chemistry, 2022)

Columns and labels:
[1] = system: Ac-histone H3, Ac-α-tubulin, p-ERK in HT-29 cells; test: Western blot analysis of HDAC and RAF pathway in HT-29 cells; type: cell-based, human; details: 0.12-10 μM, 6 h
Description: (§1) FIGURE 3 Characterization of dual inhibition of HDAC and RAF pathway. Western blot analysis of 14b in HCT116 cells (A) and in HT-29 cells (B). Cells were treated with 0 μM, 0.12 μM, 0.37 μM, 1.1 μM, 3.3 μM, and 10 μM of drugs and incubated for 6 h. The cell lysis was subjected to Western blot analysis.
(§2) The cells were treated with various concentrations of 14b for 6 h. Then, the cells were lysed using 1×SDS sample lysis buffer (CST recommended) with protease and phosphatase inhibitors. Cell lysates were loaded and electrophoresed onto 8–12% SDS-PAGE gel, and then the separated proteins were transferred to a PVDF film. The film was blocked with 5% BSA (Sigma-Aldrich, St. Louis, MO, United States) in a TBS solution containing 0.5% Tween-20 for 4 h at room temperature, then incubated with the corresponding primary antibody (1:1000–1:200) overnight at 4°C. After washing with TBST, HRP-conjugated secondary antibody was incubated for 2 h. The protein signals were visualized by the ECL Western Blotting Detection Kit (Thermo Scientific, Grand Island, NY, United States), and detected with Amersham Imager 600 system (GE, Boston, MA, United States).

[2] = system: Ac-histone H3, Ac-α-tubulin, p-ERK in HCT116 cells; test: Western blot analysis of HDAC and RAF pathway in HCT116 cells; type: cell-based, human; details: 0.12-10 μM, 6 h; for phosphorylation of ERK (p-ERK): HCT116 cells (wild-type BRAF, K-RAS G13D); for acetylated histone H3 (Ac-histone H3) / acetylated α-tubulin (Ac-α-tubulin): HCT116 cells
Description: as §1, §2

[3] = system: HCT116 cells; test: Antiproliferation CCK-8 assay, HCT116; type: cell-based; details: Homo sapiens, HCT-116; CCK-8, 72 h, HCT116 (wild-type BRAF); means of three independent experiments; read-out: Cellular IC50 HCT116
Description: (§3) HCT116 and HT-29 cells were obtained from the Shanghai Cell Bank (Type Culture Collection (TCC), Chinese Academy of Sciences) and cultured in DMEM (10–013-CVR, corning) supplemented with 10% fetal bovine serum (04-001-1A, BI), 1% penicillin/streptomycin (03-031-1B, BI).
(§4) The cells in the logarithmic phase were placed in 96-well plates (∼3000 cells/well) in a complete medium. After incubation overnight, the cells were exposed to the corresponding compounds or vehicle control at the indicated concentration for a further 72 h. Cell proliferation was evaluated using Cell Counting Kit 8 (CCK8, CK04, Dojindo Laboratories, Kumamoto, Japan). OD450 and OD650 were determined using a microplate reader. Absorbance rate (A) for each well was calculated as OD450 −OD650. […] Each IC50 value is expressed as mean ± SD. As is the absorbance rate of the test compound well, Ac is the absorbance rate of the well without either the cell or test compound, and Ab is the absorbance rate of the well with the cell and vehicle control.

[4] = system: HT-29 cells; test: Antiproliferation CCK-8 assay, HT-29; type: cell-based; details: Homo sapiens; CCK-8, 72 h, HT-29 (BRAF^V600E); means of three independent experiments; read-out: Cellular IC50 HT-29
Description: as §3, §4

[5] = molecular target: T1, BRAF^V600E (Homo sapiens, UniProt P15056, V600E); test: BRAF V600E enzymatic activity, FRET-based Z'-Lyte kinase assay; type: biochemical
T1 construct: purchased Invitrogen
Description: (§5) The experiments were performed according to the instructions of the manufacturer. […] For each assay, 10 μl kinase reactions were added to 384-well plate, mixed thoroughly, and incubated for 1 hour at room temperature. Then, a 5 μl development solution was added to each well and the plate was incubated for another 1 h at room temperature. Then, a 5 μl stop reagent was loaded to stop the reaction. For the control setting, a 5 μl phospho-peptide solution instead of kinase/peptide mixture was used as 100% phosphorylation control. […] The plate was measured on an EnVision Multilabel Reader (Perkin-Elmer). Curve fitting and data presentations were performed using GraphPad Prism, version 5.0. Every experiment was repeated at least two times.

[6] = molecular target: T2, BRAF (wild-type) (Homo sapiens, UniProt P15056); test: wild-type BRAF enzymatic activity, Z'-Lyte kinase assay; type: biochemical; details: wild-type BRAF kinase; read-out: BRAF^wt enzymatic IC50
T2 construct: purchased Invitrogen
Description: as §5

[7] = system: BRAF (wild-type); test: as above; type: biochemical; details: ratio of enzymatic IC50
Description: as §5

[8] = molecular target: T3, HDAC1 (Homo sapiens, UniProt Q13547); test: HDAC1 fluorescent-based enzymatic activity assay; type: biochemical; details: Table 1; read-out: Enzymatic IC50 HDAC1
T3 construct: purchased BPS Bioscience
Description: (§6) The purified recombinant Human HDACs and their corresponding substrates were purchased from BPS Bioscience (BPS Bioscience Inc., United States). The assays were carried out in a 384-well format using the BPS fluorescent–based HDAC activity assay according to the manufacturer’s protocol. In brief, […] of the HDAC reaction mixture was composed of HDAC assay buffer, […] BSA, serial diluted test compounds, appropriate concentration of HDACs, and […] fluorogenic substrate, the mixture was incubated at 37°C for 60 min, and then stopped by the addition of developer containing trypsin and TSA. After 20 min of incubation, the fluorescence was detected at the excitation wavelength of 360 nm and the emission wavelength of 460 nm using the EnVision Multilabel Reader (PerkinElmer Inc., United States). The analytical software, GraphPad Prism 5.0 (GraphPad Software, Inc., United States) was used to generate IC50 value via non-linear regression analysis.

[9] = molecular target: T4, HDAC6 (Homo sapiens, UniProt Q9UBN7); test: HDAC6 fluorescent-based enzymatic activity assay; type: biochemical; details: Table 1; read-out: Enzymatic IC50 HDAC6
T4 construct: purchased BPS Bioscience
T4 sequence (Q9UBN7 1-1215): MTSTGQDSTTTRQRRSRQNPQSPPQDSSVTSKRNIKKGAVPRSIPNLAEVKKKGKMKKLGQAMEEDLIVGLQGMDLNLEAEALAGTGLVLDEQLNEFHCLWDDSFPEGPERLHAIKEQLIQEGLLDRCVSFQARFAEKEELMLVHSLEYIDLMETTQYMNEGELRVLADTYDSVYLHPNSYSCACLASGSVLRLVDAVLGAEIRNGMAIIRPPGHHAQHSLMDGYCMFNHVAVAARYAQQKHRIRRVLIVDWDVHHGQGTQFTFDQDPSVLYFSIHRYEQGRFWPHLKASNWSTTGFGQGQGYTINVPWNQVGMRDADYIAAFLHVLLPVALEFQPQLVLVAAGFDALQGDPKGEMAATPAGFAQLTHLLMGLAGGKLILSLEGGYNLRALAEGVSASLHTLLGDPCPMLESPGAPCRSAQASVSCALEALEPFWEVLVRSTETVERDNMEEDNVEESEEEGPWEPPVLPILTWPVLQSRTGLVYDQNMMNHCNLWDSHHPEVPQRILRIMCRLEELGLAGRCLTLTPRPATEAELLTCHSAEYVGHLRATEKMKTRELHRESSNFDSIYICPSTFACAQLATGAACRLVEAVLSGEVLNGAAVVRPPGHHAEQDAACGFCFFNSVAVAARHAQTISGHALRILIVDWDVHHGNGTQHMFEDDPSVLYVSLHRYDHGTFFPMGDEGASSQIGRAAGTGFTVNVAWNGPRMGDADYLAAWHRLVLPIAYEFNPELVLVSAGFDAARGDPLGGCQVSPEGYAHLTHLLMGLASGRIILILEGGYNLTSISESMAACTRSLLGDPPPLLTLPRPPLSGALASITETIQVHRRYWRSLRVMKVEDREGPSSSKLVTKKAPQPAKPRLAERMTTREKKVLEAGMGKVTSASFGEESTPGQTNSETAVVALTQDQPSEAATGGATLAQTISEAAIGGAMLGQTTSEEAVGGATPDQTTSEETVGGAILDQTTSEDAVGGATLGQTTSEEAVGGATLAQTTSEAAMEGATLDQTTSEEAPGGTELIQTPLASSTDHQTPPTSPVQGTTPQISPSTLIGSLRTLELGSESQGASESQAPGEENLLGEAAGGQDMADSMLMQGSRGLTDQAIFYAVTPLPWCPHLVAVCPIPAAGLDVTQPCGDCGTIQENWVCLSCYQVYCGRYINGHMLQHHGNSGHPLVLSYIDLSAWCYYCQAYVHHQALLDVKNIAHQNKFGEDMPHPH
Description: as §6

[10] = molecular target: T5, HDAC8 (Homo sapiens, UniProt Q9BY41); test: HDAC8 fluorescent-based enzymatic activity assay; type: biochemical; details: for fold more potent than 14b against HDAC8: HDAC8 IC50 relative to 14b; for IC50: Supplementary Table 1, read-out: HDAC8 Enzymatic IC50
T5 construct: purchased BPS Bioscience
T5 sequence (Q9BY41 1-377): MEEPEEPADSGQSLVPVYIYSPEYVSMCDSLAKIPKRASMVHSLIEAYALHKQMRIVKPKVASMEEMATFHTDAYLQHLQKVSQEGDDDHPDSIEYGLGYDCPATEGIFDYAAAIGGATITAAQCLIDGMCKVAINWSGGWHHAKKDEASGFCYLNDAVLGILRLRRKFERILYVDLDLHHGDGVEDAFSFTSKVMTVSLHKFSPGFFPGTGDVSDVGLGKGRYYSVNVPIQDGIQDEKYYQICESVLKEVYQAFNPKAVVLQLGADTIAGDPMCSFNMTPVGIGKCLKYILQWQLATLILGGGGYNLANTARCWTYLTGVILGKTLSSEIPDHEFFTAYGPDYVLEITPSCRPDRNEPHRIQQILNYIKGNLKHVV
Description: as §6

T1 sequence (P15056 whole entry V600E): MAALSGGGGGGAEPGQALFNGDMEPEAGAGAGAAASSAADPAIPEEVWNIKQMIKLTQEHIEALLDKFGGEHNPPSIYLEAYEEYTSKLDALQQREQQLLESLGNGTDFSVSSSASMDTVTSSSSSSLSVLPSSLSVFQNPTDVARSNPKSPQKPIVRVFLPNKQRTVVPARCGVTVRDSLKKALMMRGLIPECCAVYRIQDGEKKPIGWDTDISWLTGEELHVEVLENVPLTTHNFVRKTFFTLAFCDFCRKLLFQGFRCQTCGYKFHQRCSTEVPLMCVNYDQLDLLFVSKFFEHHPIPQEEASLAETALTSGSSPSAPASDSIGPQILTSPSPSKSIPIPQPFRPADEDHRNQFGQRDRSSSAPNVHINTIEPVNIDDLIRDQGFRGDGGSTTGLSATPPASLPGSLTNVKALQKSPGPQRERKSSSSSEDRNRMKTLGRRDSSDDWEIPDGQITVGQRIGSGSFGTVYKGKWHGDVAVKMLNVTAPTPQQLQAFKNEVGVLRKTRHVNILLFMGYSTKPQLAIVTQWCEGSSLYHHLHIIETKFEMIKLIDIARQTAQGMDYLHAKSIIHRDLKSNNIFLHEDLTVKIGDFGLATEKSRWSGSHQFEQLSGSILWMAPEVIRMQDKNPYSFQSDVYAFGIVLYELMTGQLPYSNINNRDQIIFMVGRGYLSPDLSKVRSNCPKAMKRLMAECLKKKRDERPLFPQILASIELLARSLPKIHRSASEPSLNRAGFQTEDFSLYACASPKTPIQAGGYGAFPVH
T3 sequence (Q13547 whole entry): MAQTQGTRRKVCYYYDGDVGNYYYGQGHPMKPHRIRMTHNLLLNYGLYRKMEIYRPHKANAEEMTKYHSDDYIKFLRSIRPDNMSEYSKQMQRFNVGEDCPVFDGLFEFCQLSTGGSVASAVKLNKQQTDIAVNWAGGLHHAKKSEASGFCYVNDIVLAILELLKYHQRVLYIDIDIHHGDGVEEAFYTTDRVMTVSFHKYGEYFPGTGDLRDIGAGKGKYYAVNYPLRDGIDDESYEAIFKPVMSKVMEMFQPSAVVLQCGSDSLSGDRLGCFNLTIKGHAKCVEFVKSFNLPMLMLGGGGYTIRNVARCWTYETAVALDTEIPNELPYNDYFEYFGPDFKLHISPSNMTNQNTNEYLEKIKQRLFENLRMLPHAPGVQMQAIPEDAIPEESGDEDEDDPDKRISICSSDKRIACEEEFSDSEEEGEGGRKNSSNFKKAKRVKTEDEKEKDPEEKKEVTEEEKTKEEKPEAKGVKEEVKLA
T2 sequence (P15056 whole entry): as the sequence (P15056 whole entry V600E) above, with E600V counted along it

Row | SMILES | acetylated histone H3 (Ac-histone H3) [1] | acetylated α-tubulin (Ac-α-tubulin) [1] | phosphorylation of ERK (p-ERK) [1] | phosphorylation of ERK (p-ERK) [2] | acetylated histone H3 (Ac-histone H3) [2] | acetylated α-tubulin (Ac-α-tubulin) [2] | IC50 [3] [nM] | IC50 [4] [nM] | IC50 [5] [nM] | IC50 [6] [nM] | selectivity of BRAF^V600E over wild-type BRAF [7] | IC50 [8] [nM] | IC50 [9] [nM] | fold more potent than 14b against HDAC8 [10] [fold] | IC50 [10] [nM] | other results
1 | O=C(CCCCCCC(=O)Nc1ccccc1)NO [Vorinostat, vorinostat] | dose-dependently induced | dose-dependently induced | had little impact | had little impact | dose-dependently induced | dose-dependently induced |  |  |  |  |  |  |  |  |  | acetylated histone H3 (Ac-histone H3) ([1]; listed as vorinostat): upregulated; acetylated α-tubulin (Ac-α-tubulin) ([1]; listed as vorinostat): upregulated; acetylated histone H3 (Ac-histone H3) ([2]; listed as vorinostat): upregulated; acetylated α-tubulin (Ac-α-tubulin) ([2]; listed as vorinostat): upregulated
2 | CC(C)(C)c1nc(-c2cccc(NS(=O)(=O)c3c(F)cccc3F)c2F)c(-c2ccnc(N)n2)s1 [Dabrafenib, dabrafenib] | had little impact | had little impact | reduced | paradoxically induced | had little impact | had little impact | > 10000 | 210 |  |  |  |  |  |  |  | phosphorylation of ERK (p-ERK) ([1]; listed as dabrafenib): reduced the phosphorylation of ERK; phosphorylation of ERK (p-ERK) ([2]; listed as dabrafenib): causes paradoxical activation of ERK
3 | O=C(CCCCCCNc1nccc(-c2sc(-c3ccccc3)nc2-c2cccc(NS(=O)(=O)c3c(F)cccc3F)c2F)n1)NO [14j, 7-{[4-(4-(3-(2,6-Difluorophenylsulfonamido)-2-Fluorophenyl)-2-Phenylthiazol-5-yl)Pyrimidin-2-yl]Amino}-N-Hydroxyheptanamide] |  |  |  |  |  |  | 1080 | 950 | 5.14 | 3.86 | slightly more potent against wild-type BARF | 15.6 | 140 | 3.4 | 876 | 
4 | CC(C)(C)c1nc(-c2cccc(NS(=O)(=O)c3ccccc3)c2F)c(-c2ccnc(NCCCCCCC(=O)NO)n2)s1 [21c, 7-{[4-(2-(Tert-Butyl)-4-(2-Fluoro-3-(Phenylsulfonamido)Phenyl)Thiazol-5-yl)Pyrimidin-2-yl]Amino}-N-Hydroxyheptanamide] |  |  |  |  |  |  | 2060 | 110 | 1.26 | 2.86 | about 2 fold | 474 | 101 | 4.8 | 623 | 
5 | CC(C)(C)c1nc(-c2cccc(NS(C)(=O)=O)c2F)c(-c2ccnc(NCCCCCCC(=O)NO)n2)s1 [21a, 7-{[4-(2-(Tert-Butyl)-4-(2-Fluoro-3-(Methylsulfonamido)Phenyl)Thiazol-5-yl)Pyrimidin-2-yl]Amino}-N-Hydroxyheptanamide] |  |  |  |  |  |  | 8520 | 5020 | 1.03 |  |  | 113 | 22.2 |  |  | 
